Publication PMC2643345 (Molecular cancer therapeutics, 2008)

Target: T1, wild-type AR (Homo sapiens, UniProt P10275)
T1 sequence (P10275 1-920): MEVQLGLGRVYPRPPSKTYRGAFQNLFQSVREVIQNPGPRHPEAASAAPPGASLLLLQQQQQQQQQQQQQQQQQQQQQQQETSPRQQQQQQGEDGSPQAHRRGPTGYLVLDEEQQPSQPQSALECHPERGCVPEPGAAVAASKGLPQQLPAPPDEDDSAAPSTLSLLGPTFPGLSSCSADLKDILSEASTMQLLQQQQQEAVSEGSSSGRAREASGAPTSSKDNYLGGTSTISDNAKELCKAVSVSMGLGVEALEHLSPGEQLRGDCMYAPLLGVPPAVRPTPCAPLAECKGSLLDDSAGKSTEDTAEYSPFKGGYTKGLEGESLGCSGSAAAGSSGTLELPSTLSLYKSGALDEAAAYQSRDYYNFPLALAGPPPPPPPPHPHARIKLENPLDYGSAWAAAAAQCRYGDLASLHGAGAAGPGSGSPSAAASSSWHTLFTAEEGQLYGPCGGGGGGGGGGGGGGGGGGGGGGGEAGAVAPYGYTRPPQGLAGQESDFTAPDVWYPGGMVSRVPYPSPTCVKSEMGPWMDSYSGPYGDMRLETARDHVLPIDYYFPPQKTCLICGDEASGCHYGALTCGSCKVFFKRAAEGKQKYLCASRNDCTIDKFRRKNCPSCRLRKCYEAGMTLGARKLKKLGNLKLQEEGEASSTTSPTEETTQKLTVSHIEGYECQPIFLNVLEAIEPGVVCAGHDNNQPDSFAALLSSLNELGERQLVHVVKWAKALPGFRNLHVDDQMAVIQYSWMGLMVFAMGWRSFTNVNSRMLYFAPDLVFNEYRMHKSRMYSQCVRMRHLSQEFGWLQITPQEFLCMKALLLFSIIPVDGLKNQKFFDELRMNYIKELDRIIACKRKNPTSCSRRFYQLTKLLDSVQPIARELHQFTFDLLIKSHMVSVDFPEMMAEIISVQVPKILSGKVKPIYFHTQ
Assay: Competitive inhibition of [3H]R1881 binding, wild-type AR

Compound: C[C@]12CC[C@H](O)CC1=CC[C@@H]1[C@@H]2CC[C@]2(C)C(c3cccnc3)=CC[C@@H]12 [Abiraterone]
- binding to the AR (competitive binding, up to 10 μM): did not bind
- inhibition at 10 µM (read-out: wild-type (LAPC4/PC3-AR), inhibition of [3H]R1881 binding as symbol): < 20%
